The experiment relates to mice with FCA-induced arthritis. The experiment is described as follows: Treatment of mice with FCA-induced arthritis: ankle joint diameter. Particulars: 10 mg/kg/ml, subdermal injection around right tibiotarsal joint on day 21 after FCA, FIG. 8. Format: in vivo, mice (C57BL/6). The protocol: Animal Model Created with Arthritis Induced by Freund's Complete Adjuvant (FCA) 24 male mice (C57BL/6, purchased from the National Laboratory Animal Center, Taipei, Taiwan) weighing 20-25 g (8 weeks old) are provided. The mice are each given a subdermal injection of 0.1 ml of FCA at the tibiotarsal joint of the right hind leg and 0.05 ml of FCA on the subplantar side of the right hind paw to induce the development of arthritis. Afterward, thermal images are taken of the mice with a thermal imaging camera on day 0, day 3, and day 14 after injected with FCA, respectively. The diameters of ankle joints of left and right hind legs of the mice are measured with a vernier caliper are surveyed and recorded for 2 or 3 days. The mice with FCA-induced arthritis are administered with a neutrophil elastase 680 FAST probe through trail veins on day 21 and observed with IVIS (non-invasion in vivo imaging system) to confirm whether neutrophil elastase is produced at the location where FCA is injected.
The animal model created with FCA-induced arthritis is described above. 24 mice which conform to the animal model created with FCA-induced arthritis are provided. […]
Upon completion of the subdermal injection of the reagents into the four groups of mice, the diameters of left and right ankle joints and body weight of the mice are measured with a vernier caliper and recorded for 2 or 3 days.

On to `O=C(O)Cc1ccccc1Nc1c(Cl)cccc1Cl` [free diclofenac sodium, diclofenac sodium], for which the “reduction of swelling of ankles (ankle joint diameter) compared with saline” value is on record as “more effective than saline in reducing the swelling of the mice's ankles”.

These data come from US20190117574A1, “SURFACE-MODIFIED MICROSPHERE COMPOSITION, APPLICATION OF THE SAME, AND METHOD OF PREPARING THE SAME” (INSTITUTE OF NUCLEAR ENERGY RESEARCH, ATOMIC ENERGY …, priority 2017, published 2019).
